The values that follow are results of earlier work, collected in US7964627B2, “Amino arylsulfonamide compounds and their use as 5-HT6 ligands” (Suven Life Sciences Limited, priority 2007, dated 2011).

This series deals with animal models for schizophrenia. Particulars: Pouzet et al. 2002; cited from earlier work.

With `COc1ccc(NS(=O)(=O)c2sc3ccc(Cl)cc3c2C)cc1N1CCNCC1` [SB-271046, 5-Chloro-N-(4-methoxy-3-piperazin-1-ylphenyl)-3-methyl-2-benzothiophenesulfonamide], the “Activity in animal tests related to positive or negative symptoms of schizophrenia” value is “inactive”.
